Laboratory results reported in the supplement of paper PMC10307832.

Tests used:
Assay in all cases: relative viability (nuclei count vs DMSO), 5 days (fraction); higher = more cells survive
[1] = compound: CC1=C(C(=O)N2C=CSC2=N1)CCN3CCC(=C(C4=CC=CC=C4)C5=CC=C(C=C5)F)CC3
How it was run: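 Viability was read as treated-well nuclei divided by vehicle-well nuclei, using the median across plates. Lung cancer cell lines in 1536-well plates were kept overnight at 37 °C, pinned with five √10-spaced library-drug doses, and after 5 days were Hoechst-stained, imaged at 4× and counted in MetaXpress. Plates passed only with control CV below 25% and at least one doubling.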

[2] = compound: CC1=C(C(=O)N2C=CSC2=N1)CCN3CCC(=C(C4=CC=CC=C4)C5=CC=C(C=C5)F)CC3 + CC(C)C[C@H](NC(=O)[C@H](Cc1ccccc1)NC(=O)c1cnccn1)B(O)O [Bortezomib] (partner 0.002 µM)
How it was run: (§1)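 Each reported value is a median over duplicate plates. It expresses relative viability: treated-well nuclei count divided by vehicle-well nuclei count. Lung cancer cell lines in 1536-well plates were dosed by pin tool a day after seeding, alone with one drug or with a fixed anchor-drug dose plus five library-drug doses (not always all listed) in √10 steps, and nuclei were counted after 5 days.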

[3] = compound: CC1=C(C(=O)N2C=CSC2=N1)CCN3CCC(=C(C4=CC=CC=C4)C5=CC=C(C=C5)F)CC3 + CCNC(=O)c1noc(-c2cc(C(C)C)c(O)cc2O)c1-c1ccc(CN2CCOCC2)cc1 [Luminespib] (partner 0.01 µM)
How it was run: as §1

[4] = compound: CC1=C(C(=O)N2C=CSC2=N1)CCN3CCC(=C(C4=CC=CC=C4)C5=CC=C(C=C5)F)CC3 + COc1cc2c(Oc3ccc(NC(=O)C4(C(=O)Nc5ccc(F)cc5)CC4)cc3F)ccnc2cc1OCCCN1CCOCC1 [Foretinib] (partner 0.25 µM)
How it was run: as §1

[5] = compound: CC1=C(C(=O)N2C=CSC2=N1)CCN3CCC(=C(C4=CC=CC=C4)C5=CC=C(C=C5)F)CC3 + COc1cccc2cc(-c3nc([C@H]4CC[C@H](C(=O)O)CC4)n4ncnc(N)c34)[nH]c12 [OSI-027] (partner 0.5 µM)
How it was run: as §1

[6] = compound: CC1=C(C(=O)N2C=CSC2=N1)CCN3CCC(=C(C4=CC=CC=C4)C5=CC=C(C=C5)F)CC3 + CS(=O)(=O)CCNCc1ccc(-c2ccc3ncnc(Nc4ccc(OCc5cccc(F)c5)c(Cl)c4)c3c2)o1 [Lapatinib] (partner 2 µM)
How it was run: as §1

[7] = compound: CC1=C(C(=O)N2C=CSC2=N1)CCN3CCC(=C(C4=CC=CC=C4)C5=CC=C(C=C5)F)CC3 + CS(=O)(=O)N1CCN(Cc2cc3nc(-c4cccc5[nH]ncc45)nc(N4CCOCC4)c3s2)CC1 [Pictilisib] (partner 1 µM)
How it was run: as §1

[8] = compound: CC1=C(C(=O)N2C=CSC2=N1)CCN3CCC(=C(C4=CC=CC=C4)C5=CC=C(C=C5)F)CC3 + C[C@@H](Oc1cc(-c2cnn(C3CCNCC3)c2)cnc1N)c1c(Cl)ccc(F)c1Cl [Crizotinib] (partner 1 µM)
How it was run: as §1

[9] = compound: CC1=C(C(=O)N2C=CSC2=N1)CCN3CCC(=C(C4=CC=CC=C4)C5=CC=C(C=C5)F)CC3 + C[C@]1(O)C[C@@H](c2nc(-c3ccc4ccc(-c5ccccc5)nc4c3)c3c(N)nccn32)C1 [Linsitinib] (partner 1 µM)
How it was run: as §1

[10] = compound: CC1=C(C(=O)N2C=CSC2=N1)CCN3CCC(=C(C4=CC=CC=C4)C5=CC=C(C=C5)F)CC3 + Cc1nc(NC(=O)N2CCC[C@H]2C(N)=O)sc1-c1ccnc(C(C)(C)C(F)(F)F)c1 [Alpelisib] (partner 2 µM)
How it was run: as §1

[11] = compound: CC1=C(C(=O)N2C=CSC2=N1)CCN3CCC(=C(C4=CC=CC=C4)C5=CC=C(C=C5)F)CC3 + Cc1nc(Nc2ncc(C(=O)Nc3c(C)cccc3Cl)s2)cc(N2CCN(CCO)CC2)n1 [Dasatinib] (partner 0.075 µM)
How it was run: as §1

[12] = compound: CC1=C(C(=O)N2C=CSC2=N1)CCN3CCC(=C(C4=CC=CC=C4)C5=CC=C(C=C5)F)CC3 + N=C(N)NC(=N)NCCc1ccccc1 [Phenformin] (partner 250 µM)
How it was run: as §1

[13] = compound: CC1=C(C(=O)N2C=CSC2=N1)CCN3CCC(=C(C4=CC=CC=C4)C5=CC=C(C=C5)F)CC3 + Nc1nc2[nH]cc(CCc3ccc(C(=O)N[C@@H](CCC(=O)O)C(=O)O)cc3)c2c(=O)[nH]1 [Pemetrexed] (partner 0.2 µM)
How it was run: as §1

[14] = compound: CC1=C(C(=O)N2C=CSC2=N1)CCN3CCC(=C(C4=CC=CC=C4)C5=CC=C(C=C5)F)CC3 + Cc1cc(Nc2cc(N3CCN(C)CC3)nc(Sc3ccc(NC(=O)C4CC4)cc3)n2)n[nH]1 [Tozasertib] (partner 0.1 µM)
How it was run: as §1

NCI-H1563 showed a relative viability ([1]; 0.08 µM) of 0.903, a relative viability ([1]; 0.253 µM) of 0.949 and a relative viability ([1]; 0.8 µM) of 0.882. It also gave a relative viability ([1]; 2.53 µM) of 0.986, a relative viability ([1]; 8 µM) of 0.918 and a relative viability ([2]; first compound 0.08 µM) of 0.928. It also gave a relative viability ([2]; first compound 0.253 µM) of 0.957, a relative viability ([2]; first compound 0.8 µM) of 0.852 and a relative viability ([2]; first compound 2.53 µM) of 0.827. It also gave a relative viability ([2]; first compound 8 µM) of 0.722, a relative viability ([3]; first compound 0.08 µM) of 0.643 and a relative viability ([3]; first compound 0.253 µM) of 0.572. For the same cell line, the relative viability ([3]; first compound 0.8 µM) was 0.49, the relative viability ([3]; first compound 2.53 µM) was 0.508 and the relative viability ([3]; first compound 8 µM) was 0.534. It also gave a relative viability ([4]; first compound 0.08 µM) of 0.943, a relative viability ([4]; first compound 0.253 µM) of 0.87 and a relative viability ([4]; first compound 0.8 µM) of 0.907. For the same cell line, the relative viability ([4]; first compound 2.53 µM) was 0.946, the relative viability ([4]; first compound 8 µM) was 0.769 and the relative viability ([5]; first compound 0.08 µM) was 0.85. The relative viability ([5]; first compound 0.253 µM) was 0.72, the relative viability ([5]; first compound 0.8 µM) was 0.732 and the relative viability ([5]; first compound 2.53 µM) was 0.763. It also gave a relative viability ([5]; first compound 8 µM) of 0.644, a relative viability ([6]; first compound 0.08 µM) of 0.91 and a relative viability ([6]; first compound 0.253 µM) of 0.845. The relative viability ([6]; first compound 0.8 µM) was 1, the relative viability ([6]; first compound 2.53 µM) was 1.01 and the relative viability ([6]; first compound 8 µM) was 0.857. For the same cell line, the relative viability ([7]; first compound 0.08 µM) was 0.542, the relative viability ([7]; first compound 0.253 µM) was 0.684 and the relative viability ([7]; first compound 0.8 µM) was 0.66. For the same cell line, the relative viability ([7]; first compound 2.53 µM) was 0.633, the relative viability ([7]; first compound 8 µM) was 0.637 and the relative viability ([8]; first compound 0.08 µM) was 0.775. The relative viability ([8]; first compound 0.253 µM) was 0.842, the relative viability ([8]; first compound 0.8 µM) was 0.793 and the relative viability ([8]; first compound 2.53 µM) was 0.817. For the same cell line, the relative viability ([8]; first compound 8 µM) was 0.87, the relative viability ([9]; first compound 0.08 µM) was 1.12 and the relative viability ([9]; first compound 0.253 µM) was 1.26. The relative viability ([9]; first compound 0.8 µM) was 1.2, the relative viability ([9]; first compound 2.53 µM) was 1.1 and the relative viability ([9]; first compound 8 µM) was 1.14. For the same cell line, the relative viability ([10]; first compound 0.08 µM) was 0.82, the relative viability ([10]; first compound 0.253 µM) was 0.909 and the relative viability ([10]; first compound 0.8 µM) was 0.879. For the same cell line, the relative viability ([10]; first compound 2.53 µM) was 0.885, the relative viability ([10]; first compound 8 µM) was 0.779 and the relative viability ([11]; first compound 0.08 µM) was 0.502. The relative viability ([11]; first compound 0.253 µM) was 0.531, the relative viability ([11]; first compound 0.8 µM) was 0.485 and the relative viability ([11]; first compound 2.53 µM) was 0.5. It also gave a relative viability ([11]; first compound 8 µM) of 0.5, a relative viability ([12]; first compound 0.08 µM) of 0.654 and a relative viability ([12]; first compound 0.253 µM) of 0.7. For the same cell line, the relative viability ([12]; first compound 0.8 µM) was 0.695, the relative viability ([12]; first compound 2.53 µM) was 0.633 and the relative viability ([12]; first compound 8 µM) was 0.648. It also gave a relative viability ([13]; first compound 0.08 µM) of 0.971, a relative viability ([13]; first compound 0.253 µM) of 0.766 and a relative viability ([13]; first compound 0.8 µM) of 0.744. It also gave a relative viability ([13]; first compound 2.53 µM) of 0.833 and a relative viability ([13]; first compound 8 µM) of 0.653.

Cell Line NCI-H1623 has a relative viability ([1]; 0.08 µM) of 0.887, a relative viability ([1]; 0.253 µM) of 1.03 and a relative viability ([1]; 0.8 µM) of 1.02. The relative viability ([1]; 2.53 µM) was 0.96, the relative viability ([1]; 8 µM) was 0.87 and the relative viability ([3]; first compound 0.08 µM) was 0.563. It also gave a relative viability ([3]; first compound 0.253 µM) of 0.631, a relative viability ([3]; first compound 0.8 µM) of 0.521 and a relative viability ([3]; first compound 2.53 µM) of 0.472. It also gave a relative viability ([3]; first compound 8 µM) of 0.35, a relative viability ([4]; first compound 0.08 µM) of 0.632 and a relative viability ([4]; first compound 0.253 µM) of 0.968. The relative viability ([4]; first compound 0.8 µM) was 0.886, the relative viability ([4]; first compound 2.53 µM) was 0.819 and the relative viability ([4]; first compound 8 µM) was 0.826. For the same cell line, the relative viability ([5]; first compound 0.08 µM) was 0.416, the relative viability ([5]; first compound 0.253 µM) was 0.411 and the relative viability ([5]; first compound 0.8 µM) was 0.431. The relative viability ([5]; first compound 2.53 µM) was 0.436, the relative viability ([5]; first compound 8 µM) was 0.433 and the relative viability ([14]; first compound 0.08 µM) was 0.466. For the same cell line, the relative viability ([14]; first compound 0.253 µM) was 0.434, the relative viability ([14]; first compound 0.8 µM) was 0.446 and the relative viability ([14]; first compound 2.53 µM) was 0.475. The relative viability ([14]; first compound 8 µM) was 0.419, the relative viability ([11]; first compound 0.08 µM) was 0.473 and the relative viability ([11]; first compound 0.253 µM) was 0.57. For the same cell line, the relative viability ([11]; first compound 0.8 µM) was 0.5, the relative viability ([11]; first compound 2.53 µM) was 0.536 and the relative viability ([11]; first compound 8 µM) was 0.549. It also gave a relative viability ([12]; first compound 0.08 µM) of 0.706, a relative viability ([12]; first compound 0.253 µM) of 0.618 and a relative viability ([12]; first compound 0.8 µM) of 0.607. For the same cell line, the relative viability ([12]; first compound 2.53 µM) was 0.564 and the relative viability ([12]; first compound 8 µM) was 0.594.
